In patent US9499495B2, “Quinazolines and azaquinazolines as dual inhibitors of RAS/RAF/MEK/ERK and PI3K/AKT/PTEN/mTOR pathways” (Asana Biosciences, LLC, priority 2013, dated 2016):

Columns and labels:
Format in all cases: cell-based
pAKT (T308) in RKO cells = assay: In Cell Western (ICW) assay, pAKT-T308 in RKO cells; conditions: Homo sapiens, 3 h treatment
Method: Cell lines A375, A2058 and RKO obtained from the ATCC as provided above, were grown, and after attaining ˜80% confluency were trypsinized, centrifuged and resuspended in fresh media. The cells were seeded at the specified density (20,000 to 50,000) in a 96-well format black-well clear bottom plate (Corning) and incubated overnight at 37° C. in a 5% CO2 incubator. The next day, compound dilutions of test compounds were prepared in 100% DMSO followed by dilutions in respective media. Treatment of test compounds was performed for 3 h at 37° C. in 5% CO2 incubator. Following 3 h drug treatment, the conditional media was discarded and the cells were washed once with cPBS (PBS containing 0.1% magnesium chloride hexahydrate and 0.1% anhydrous calcium chloride) and fixed with 4% paraformaldehyde in cPBS for 1 h at rt. After fixing, the cells were given three washes using cPBST (cPBS containing 0.1% Triton™ X-100 reagent) and then blocked using blocking solution (5% skimmed milk powder or 5% BSA prepared in cPBST) for 2 h at rt with shaking at 300 rpm. The cells were again washed thrice with cPBST and incubated with primary antibody phospho-p44/42 MAPK(Erk1/2)(Thr202/204) antibody (Cell Signaling, Catalog # 9101L), phospho S6 ribosomal protein (Cell Signaling, Catalog #4858L), phospho AKT (Thr 308) (Cell Signaling, Catalog #9275) or phospho AKT (Ser 473) (Cell Signaling, Catalog #4060L) in specified dilutions (1:500-1:2500), prepared in respective blocking solutions, in a racker overnight at 4° C. The next day, the cells were washed with 1× Delfia® wash buffer (4×1 wash) and incubated with secondary antibody (Delfia®-Eu-N1 labeled anti-rabbit antibody; PerkinElmer, Catalog #AD0105; dilutions: 1:2000 to 1:6000 in Delfia® assay buffer (PerkinElmer, Catalog #1244-111)) for 2 h at rt in the dark at 300 rpm. The cells were then given four washes with 1× Delfia® wash buffer and incubated with Wallac Delfia® Enhancement solution (100 μL; PerkinElmer, Catalog #1244-105) for 20 min at rt in the dark at 300 rpm. The fluorescence emission was then read at 615 nm with an excitation wavelength of 340 nm using a Victor V5 Fluorometer (Perkin Elmer, US). The cells were then washed once with 1×cPBS and incubated with 100 μL of 0.5 mg/mL of Hoechst 33258 dye prepared in cPBS and read at 460 nm with 355 nm excitation, thereby evaluating the correction factor.
The % inhibition for the test compounds of formula (I) (new chemical entities (NCEs)) was calculated keeping DMSO control as 0% and the IC50 values were determined using sigmoidal dose response curve fit in GraphPad Prism® v5 software.

RKO cells = assay: XTT assay for cell viability, RKO cells; conditions: Homo sapiens, 72 h
Summary of the method: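 RKO and A375 cells seeded at 1000-2000/well overnight, then exposed to compound for 72 h at 37° C., 5% CO2. XTT (1 mg/ml)/PMS (25 μM) added for 2-3 h; absorbance at 450 nm. Growth relative to DMSO control (100%); GI50 from sigmoidal dose-response fit.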

pS6RP in RKO cells = assay: In Cell Western (ICW) assay, pS6RP in RKO cells; conditions: Homo sapiens, 3 h treatment
Summary of the method: (§1)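 RKO or A375 cells were exposed to compounds for 3 h at 37 °C, then fixed and stained in-cell with antibodies to pERK1/2 (T202/Y204), pS6RP or pAKT T308, followed by a Eu-labelled secondary. Time-resolved fluorescence (340/615 nm) was normalized to Hoechst, and IC50 values were fitted sigmoidally against DMSO as 0% inhibition.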

pERK in RKO cells = assay: In Cell Western (ICW) assay, pERK in RKO cells; conditions: Homo sapiens, 3 h treatment
Summary of the method: as §1

pERK in A375 cells = assay: In Cell Western (ICW) assay, pERK in A375 cells; conditions: Homo sapiens, A-375, 3 h treatment
Summary of the method: as §1

SMILES | IC50 (pAKT (T308) in RKO cells) [nM] | IC50 (pS6RP in RKO cells) [nM] | IC50 (pERK in RKO cells) [nM] | IC50 (pERK in A375 cells) [nM] | IC50 (RKO cells) [nM]
Nc1ccc(-c2nc(N3CCOCC3)c3nc(-c4cccc(NS(=O)(=O)CCCF)c4F)ccc3n2)cn1 [Example 88, N-(3-(2-(6-aminopyridin-3-yl)-4-morpholinopyrido[3,2-d]pyrimidin-6-yl)-2-fluorophenyl)-3-fluoropropane-1-sulfonamide] | 100 to 1000 | 100 to 1000 | 100 to 1000 | 100 to 1000 | 100 to 1000
COc1cc(-c2c(F)ccc(NS(=O)(=O)CCCF)c2F)cc2c(N3CCOCC3)nc(-c3ccc(N)nc3)nc12 [Example 79, N-(3-(2-(6-aminopyridin-3-yl)-8-methoxy-4-morpholinoquinazolin-6-yl)-2,4-difluorophenyl)-3-fluoropropane-1-sulfonamide] | 100 to 1000 | 100 to 1000 | – | 1 to 100 | 100 to 1000
Nc1ncc(-c2nc(N3CCOCC3)c3nc(-c4cccc(NS(=O)(=O)CCCF)c4F)ccc3n2)cn1 [Example 87, N-(3-(2-(2-aminopyrimidin-5-yl)-4-morpholinopyrido[3,2-d]pyrimidin-6-yl)-2-fluorophenyl)-3-fluoropropane-1-sulfonamide] | 100 to 1000 | 100 to 1000 | – | 100 to 1000 | 100 to 1000
Nc1ccc(-c2nc(N3CCOCC3)c3nc(-c4cccc(NS(=O)(=O)c5cc(F)ccc5F)c4F)ccc3n2)cn1 [Example 92, N-(3-(2-(6-aminopyridin-3-yl)-4-morpholinopyrido[3,2-d]pyrimidin-6-yl)-2-fluorophenyl)-2,5-difluorobenzenesulfonamide] | 1000 to 10000 | – | 100 to 1000 | 1 to 100 | 1000 to 10000

More lines, main results first:

IC50 (pAKT (T308) in RKO cells) [nM] | IC50 (pS6RP in RKO cells) [nM] | IC50 (pERK in RKO cells) [nM] | IC50 (pERK in A375 cells) [nM] | SMILES | IC50 (RKO cells) [nM]
1000 to 10000 | – | 100 to 1000 | 1 to 100 | C[C@H]1COCCN1c1nc(-c2cnc(N)cc2C(F)(F)F)nc2ccc(-c3cccc(NS(=O)(=O)CCCF)c3F)nc12 [Example 108, (S)-N-(3-(2-(6-amino-4-(trifluoromethyl)pyrldin-3-yl)-4-(3-methylmorpholino)pyrido[3,2-d]pyrimidin-6-yl)-2-fluorophenyl)-3-fluoropropane-1-sulfonamide] | 100 to 1000
100 to 1000 | 100 to 1000 | 1 to 100 | 1 to 100 | Nc1cc(C(F)(F)F)c(-c2nc(N3CCOCC3)c3nc(-c4cccc(NS(=O)(=O)CCCF)c4F)ccc3n2)cn1 [Example 94, N-(3-(2-(6-amino-4-(trifluoromethyl)pyridin-3-yl)-4-morpholinopyrido[3,2-d]pyrimidin-6-yl)-2-fluorophenyl)-3-fluoropropane-1-sulfonamide] | 100 to 1000
100 to 1000 | 1 to 100 | 100 to 1000 | 1 to 100 | Cc1cc(N)ncc1-c1nc(N2CCOCC2)c2nc(-c3cccc(NS(=O)(=O)CCCF)c3F)ccc2n1 [Example 101, N-(3-(2-(6-amino-4-methylpyrtdin-3-yl)-4-morpholinopyrldo[3,2-d]pyrimidin-6-yl)-2-fluorophenyl)-3-fluoropropane-1-sulfonamide] | 100 to 1000
